Read-outs that look alike come from different tables or passages of the source.
What was measured:
[1] = target: T1, NAMPT (Homo sapiens, UniProt P43490); experiment: Biochemical inhibition assay: NAMPT enzymatic reaction, NMN quantified by mass spectrometry; details: read-out: Biochem IC50
T1 construct: His tag; host or cells: E. coli
Method in brief: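 Inhibition of E. coli-expressed His-tagged human NAMPT, measured as NMN formation by mass spectrometry after a 30 min room-temperature reaction containing 1 μM NAM, 100 μM PRPP and 2.5 mM ATP.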

[2] = system: A2780 cells; experiment: In-vitro cell proliferation assay (SRB), A2780 cells; format: cell-based; details: A2780 cells, 72 hours, read-out: A2780 IC50
Method in brief: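 Cells were plated overnight at 37° C., 5% CO2, then exposed to serially diluted compounds (0.1% DMSO final) for 72 hours. Viable cells were measured by sulforhodamine B staining after TCA fixation, read at 570 nm; media-only background was subtracted before % inhibition was calculated.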

[3] = Homo sapiens, A2780, 72 h, SRB assay

T1 sequence (P43490 whole entry): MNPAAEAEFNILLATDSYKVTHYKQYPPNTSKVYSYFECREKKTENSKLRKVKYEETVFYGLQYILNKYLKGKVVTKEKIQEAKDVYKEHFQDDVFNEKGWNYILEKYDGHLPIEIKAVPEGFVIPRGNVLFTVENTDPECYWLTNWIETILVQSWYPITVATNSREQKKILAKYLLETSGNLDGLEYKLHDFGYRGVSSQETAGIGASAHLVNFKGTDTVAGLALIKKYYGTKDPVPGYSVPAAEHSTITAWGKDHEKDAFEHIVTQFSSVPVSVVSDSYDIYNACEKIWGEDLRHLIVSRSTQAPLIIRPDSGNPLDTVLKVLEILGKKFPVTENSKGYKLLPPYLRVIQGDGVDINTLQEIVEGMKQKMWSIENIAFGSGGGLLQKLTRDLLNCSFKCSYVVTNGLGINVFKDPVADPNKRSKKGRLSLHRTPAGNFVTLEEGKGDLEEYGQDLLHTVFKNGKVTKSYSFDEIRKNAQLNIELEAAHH

SMILES	IC50 ([1]; NAMPT enzymatic reaction)	IC50 ([2]; Homo sapiens, A2780, 72 h, SRB)	IC50 [2, 3]	IC50 ([1]; NAMPT enzymatic assay)	IC50 ([2]; SRB)
Cc1ccc(S(=O)(=O)c2ccc(CNC(=O)c3cc4ccncc4o3)cc2)c(C)c1	21.8 nM	24 nM			
O=CNc1ccc(C(=O)NCc2ccc(S(=O)(=O)c3cc(F)cc(F)c3)cc2)cn1 [5-N-({4-[(3,5-difluorobenzene)sulfonyl]phenyl}methyl)pyridine-2,5-diamido]	1000 to 10000 nM	661 nM			
O=C(NCc1ccc(S(=O)(=O)c2cccc(Cl)c2)cc1)c1cc2ccncc2o1 [N-({4-[{3-chlorobenzene)sulfonyl]phenyl}methyl)furo[2,3-c]pyridine-2-carboxamide]	6 nM	3.3 nM			
Cc1ccc(F)cc1S(=O)(=O)c1ccc(CNC(=O)c2cc3cnccc3[nH]2)cc1 [N-({4-[(5-fluoro-2-methylbenzene)sulfonyl]phenyl}methyl)-1H-pyrrolo[3,2-c]pyridine-2-carboxamide]	11 nM		7 nM		
COCc1cccc(S(=O)(=O)c2ccc(CNC(=O)c3cc4ccncc4s3)cc2)c1		6.7 nM		2.6 nM	
CN(C)C(=O)c1ccccc1S(=O)(=O)c1ccc(CNC(=O)c2ccc3nccn3c2)cc1 [N-[(4-{[2-(dimethylcarbamoyl)benzene]sulfonyl}phenyl)methyl]imidazo[1,2-a]pyridine-6-carboxamide]		100 to 1000 nM		> 167 nM	
CCCCOc1ccc(Cl)cc1S(=O)(=O)c1ccc(CNC(=O)c2cc3ccncc3s2)cc1	7.3 nM	10 nM			
O=C(NCc1ccc(S(=O)(=O)c2cc(F)cc(N3CCCC3)c2)cc1)c1cc2ccncc2s1		2.7 nM		1.2 nM	
O=C(NCc1ccc(S(=O)(=O)c2ccccc2Oc2ccccc2)cc1)c1cc2ccncc2o1	20.4 nM	1000 to 10000 nM			
COc1cncc(S(=O)(=O)c2ccc(CNC(=O)c3cnc4[nH]ncc4c3)cc2)c1 [N-{[4-(5-methoxypyridine-3-sulfonyl)phenyl]methyl}-1H-pyrazolo[3,4-b]pyridine-5-carboxamide]		16.7 nM		41.4 nM	
Cc1cc(S(=O)(=O)c2ccc(CNC(=O)c3cc4ccncc4o3)cc2)ccc1F	13.2 nM	6 nM			
CC(C)NC(=O)c1cccc(S(=O)(=O)c2ccc(CNC(=O)c3ccc4nccn4c3)cc2)c1		50.4 nM		22.2 nM	
O=C(NCc1ccc(S(=O)(=O)c2cnc3ccc(Cl)cn23)cc1)c1cc2ccncc2s1 [N-[(4-{6-chloroimidazo[1,2-a]pyridine-3-sulfonyl}phenyl)methyl]thieno[2,3-c]pyridine-2-carboxamide]		0.4 nM		1.2 nM	
O=C(NCc1ccc(S(=O)(=O)c2ccc(N3CCOCC3)nc2)cc1)c1cc2cnccc2[nH]1 [N-({4-[6-(morpholin-4-yl)pyridine-3-sulfonyl]phenyl}methyl)-1H-pyrrolo[3,2-c]pyridine-2-carboxamide]		1.5 nM		9.6 nM	
O=C(NCc1ccc(S(=O)(=O)c2cncc(F)c2)cc1)c1cnc2[nH]ncc2c1 [N-{[4-(5-fluoropyridine-3-sulfonyl)phenyl]methyl}-1H-pyrazolo[3,4-b]pyridine-5-carboxamide]		25.4 nM		79.2 nM	
CC(C)c1cccc(S(=O)(=O)c2ccc(CNC(=O)c3cc4ccncc4s3)cc2)c1 [N-[(4-{[3-(propan-2-yl)benzene]sulfonyl}phenyl)methyl]thieno[2,3-c]pyridine-2-carboxamide]	9 nM		2.6 nM		
Cn1cc2cc(S(=O)(=O)c3ccc(CNC(=O)c4ccc5nccn5c4)cc3)ccc2n1 [N-{[4-(2-methyl-2H-indazole-5-sulfonyl)phenyl]methyl}imidazo[1,2-a]pyridine-6-carboxamide]		5.8 nM		13.3 nM	
O=C(NCc1ccc(S(=O)(=O)c2cccc(OC(F)(F)F)c2)cc1)c1cc2ccncc2s1 [N-[(4-{[3-(trifluoromethoxy)benzene]sulfonyl}phenyl)methyl]thieno[2,3-c]pyridine-2-carboxamide]	2 nM		2.4 nM		
CCCCOc1ccc(S(=O)(=O)c2ccc(CNC(=O)c3cc4ccncc4s3)cc2)cc1	3.6 nM	10.3 nM			
O=C(NCc1ccc(S(=O)(=O)c2cc(C(F)(F)F)ccc2Cl)cc1)c1cc2ccncc2o1		14.1 nM		13.9 nM	
COc1cccc(Cl)c1S(=O)(=O)c1ccc(CNC(=O)c2cc3cnccc3[nH]2)cc1 [N-({4-[(2-chloro-6-methoxybenzene)sulfonyl]phenyl}methyl)-1H-pyrrolo[3,2-c]pyridine-2-carboxamide]	13 nM		3 nM		
CCOc1ccccc1S(=O)(=O)c1ccc(CNC(=O)c2ccc3nccn3c2)cc1 [N-({4-[(2-ethoxybenzene)sulfonyl]phenyl}methyl)imidazo[1,2-a]pyridine-6-carboxamide]	20.3 nM	3.39 nM			
O=C(NCc1ccc(S(=O)(=O)c2ccc(F)cc2C(F)(F)F)cc1)c1cnc2[nH]ncc2c1 [N-[(4-{[4-fluoro-2-(trifluoromethyl)benzene]sulfonyl}phenyl)methyl]-1H-pyrazolo[3,4-b]pyridine-5-carboxamide]		109 nM		112 nM	

SMILES	IC50 ([1]; NAMPT enzymatic reaction)	IC50 ([2]; Homo sapiens, A2780, 72 h, SRB)	IC50 [2, 3]	IC50 ([1]; NAMPT enzymatic assay)	IC50 ([2]; SRB)
Cc1ccc(S(=O)(=O)c2ccc(CNC(=O)c3ccc4nccn4c3)cc2)c(F)c1 [N-({4-[(2-fluoro-4-methylbenzene)sulfonyl]phenyl}methyl)imidazo[1,2-a]pyridine-6-carboxamide]	21.4 nM	24.7 nM			
O=C(NCc1ccc(S(=O)(=O)c2ccc(C(F)(F)F)c(Cl)c2)cc1)c1cc2cnccc2[nH]1		7.7 nM		13.3 nM	
COc1cc(Cl)ccc1S(=O)(=O)c1ccc(CNC(=O)c2ccc3nccn3c2)cc1 [N-({4-[(4-chloro-2-methoxybenzene)sulfonyl]phenyl}methyl)imidazo[1,2-a]pyridine-6-carboxamide]	18.7 nM	12.6 nM			
CCCCc1ccc(S(=O)(=O)c2ccc(CNC(=O)c3cc4cnccc4[nH]3)cc2)cc1	14.6 nM	35.8 nM			
O=C(NCc1ccc(S(=O)(=O)c2ccc3ncccc3c2)cc1)c1cc2ccncc2s1 [N-{[4-(quinoline-6-sulfonyl)phenyl]methyl}thieno[2,3-c]pyridine-2-carboxamide]	3 nM		0.9 nM		
CC(C)(C)c1cccc(S(=O)(=O)c2ccc(CNC(=O)c3cc4ccncc4o3)cc2)c1	9.3 nM	7 nM			
Cc1cc(S(=O)(=O)c2ccc(CNC(=O)c3cc4cnccc4[nH]3)cc2)ccc1F [N-({4-[(4-fluoro-3-methylbenzene)sulfonyl]phenyl}methyl)-1H-pyrrolo[3,2-c]pyridine-2-carboxamide]	9 nM		7 nM		
COc1ccc(S(=O)(=O)c2ccc(CNC(=O)c3cc4ccncc4o3)cc2)cc1OC	6.2 nM	3.8 nM			
CCCOc1ccc(S(=O)(=O)c2ccc(CNC(=O)c3cnc4[nH]ncc4c3)cc2)cc1F [N-({4-[(3-fluoro-4-propoxybenzene)sulfonyl]phenyl}methyl)-1H-pyrazolo[3,4-b]pyridine-5-carboxamide]	11.6 nM	6.5 nM			
Cc1cc(-n2cccn2)ccc1S(=O)(=O)c1ccc(CNC(=O)c2cc3ccncc3s2)cc1		3.1 nM		1.5 nM	
Cc1ccc(F)c(S(=O)(=O)c2ccc(CNC(=O)c3cnc4[nH]ncc4c3)cc2)c1	24.1 nM				71.6 nM
CN(C)CCc1ccc(S(=O)(=O)c2ccc(CNC(=O)c3cnc4nccn4c3)cc2)cc1		18.1 nM		2 nM	
COc1ccc(F)c(S(=O)(=O)c2ccc(CNC(=O)c3cnc4[nH]ncc4c3)cc2)c1 [N-({4-[(2-fluoro-5-methoxybenzene)sulfonyl]phenyl}methyl)-1H-pyrazolo[3,4-b]pyridine-5-carboxamide]	139 nM	100 to 1000 nM			
COc1ccc2cc(S(=O)(=O)c3ccc(CNC(=O)c4ccc5nccn5c4)cc3)ccc2c1 [N-{[4-(6-methoxynaphthalene-2-sulfonyl)phenyl]methyl}imidazo[1,2-a]pyridine-6-carboxamide]		1.8 nM		2.7 nM	
O=C(NCc1ccc(S(=O)(=O)c2cnc(N3CCCC3)s2)cc1)c1cnc2nccn2c1 [N-({4-[2-(pyrrolidin-1-yl)-1,3-thiazole-5-sulfonyl]phenyl}methyl)imidazo[1,2-a]pyrimidine-6-carboxamide]		0.9 nM		2.9 nM	
COc1cccc(S(=O)(=O)c2ccc(CNC(=O)c3ccc4nccn4c3)cc2)n1 [N-{[4-(6-methoxypyridine-2-sulfonyl)phenyl]methyl}imidazo[1,2-a]pyridine-6-carboxamide]		1.3 nM		5.2 nM	
Cc1ccc(S(=O)(=O)c2ccc(CNC(=O)c3cc4ccncc4o3)cc2)cc1Cl	52.8 nM	1.7 nM			
O=C(NCc1ccc(S(=O)(=O)c2cccc(OCCN3CCOCC3)c2)cc1)c1cc2ccncc2s1		1.5 nM		3 nM	
O=C(NCc1ccc(S(=O)(=O)c2cccc3cccnc23)cc1)c1cnc2[nH]ncc2c1 [N-{[4-(quinoline-8-sulfonyl)phenyl]methyl}-1H-pyrazolo[3,4-b]pyridine-5-carboxamide]		23.6 nM		45.5 nM	
O=C(NCc1ccc(S(=O)(=O)c2ccc(-n3cccn3)c(F)c2)cc1)c1cc2cnccc2[nH]1 [N-[(4-{[3-fluoro-4-(1H-pyrazol-1-yl)benzene]sulfonyl}phenyl)methyl]-1H-pyrrolo[3,2-c]pyridine-2-carboxamide]	11 nM		4 nM		
O=C(NCc1ccc(S(=O)(=O)c2ccc(Cl)cc2C(F)(F)F)cc1)c1cc2ccncc2o1		25.4 nM		9.8 nM	
CCCCOc1ccc(S(=O)(=O)c2ccc(CNC(=O)c3cc4ccncc4s3)cc2)cc1Cl	4.8 nM	12.5 nM			
